Reference: US11723908B2, “Quinazoline derivatives as antitumor agents” (SUZHOU ZANRONG PHARMA LIMITED, priority 2018, dated 2023)

Target: HER2 (Homo sapiens (Human), UniProt P04626)
Test: BT474 cellular assay (HER2 inhibition), phospho-HER2 ELISA
Format: cell-based
Conditions: inhibition of phosphor HER2, BT474 cells, 2 hours compound incubation
Description: Assay a) BT474 Cellular Assay (HER2 Inhibition) Inhibition of phosphor HER2 was determined by enzyme-linked immunosorbent assay (ELISA) in BT474 cells. BT474 cell line was purchased from [NT] number HTB-20). Human Phospho-ErbB2 ELISA kit was purchased from R&D systems (catalog number DYC1768). Day 1: When the cells reach 70-90% confluence, cells were trypsinized and re-suspended. 5000 cells per well were seeded to a 384-well plate. The plate was incubated at 37° C. with 5% CO2 for 24 hours. ELISA plate was coated with 2 μg/ml capture antibody, which was incubated at 4° C. overnight. Day 2: 25 nl compounds was dosed by Echo from source plate and the 384-well plate was incubated at 37° C. for 2 hours. 30 μl lysis buffer was added to each well and the 384-well plate was shaken softly at 4° C. for 30 minutes. The ELISA plate was washed, blocked and incubated at room temperature for 1-2 hours. The blocked ELISA plate was washed and 20 μl cell lysate was transferred from the 384-well plate to the ELISA plate, which was incubated overnight at 4° C. Day 3: The ELISA plate was washed 3 times. 25 μl/well detection antibody was added (diluted 1 by 2000 in 1% BSA in PBS). After 2 hours of incubation with detection antibody, the ELISA plate was washed 3 times, 25 μl/well TMB substrate was added and incubated for 10-15 minutes before stop solution was added. Absorbance at 450 nm and 570 nm was read within 30 minutes after adding the stop solution. […] The IC50 results are provided in Table 1 for some exemplary compounds.

Sequence of HER2 (P04626 23-1255): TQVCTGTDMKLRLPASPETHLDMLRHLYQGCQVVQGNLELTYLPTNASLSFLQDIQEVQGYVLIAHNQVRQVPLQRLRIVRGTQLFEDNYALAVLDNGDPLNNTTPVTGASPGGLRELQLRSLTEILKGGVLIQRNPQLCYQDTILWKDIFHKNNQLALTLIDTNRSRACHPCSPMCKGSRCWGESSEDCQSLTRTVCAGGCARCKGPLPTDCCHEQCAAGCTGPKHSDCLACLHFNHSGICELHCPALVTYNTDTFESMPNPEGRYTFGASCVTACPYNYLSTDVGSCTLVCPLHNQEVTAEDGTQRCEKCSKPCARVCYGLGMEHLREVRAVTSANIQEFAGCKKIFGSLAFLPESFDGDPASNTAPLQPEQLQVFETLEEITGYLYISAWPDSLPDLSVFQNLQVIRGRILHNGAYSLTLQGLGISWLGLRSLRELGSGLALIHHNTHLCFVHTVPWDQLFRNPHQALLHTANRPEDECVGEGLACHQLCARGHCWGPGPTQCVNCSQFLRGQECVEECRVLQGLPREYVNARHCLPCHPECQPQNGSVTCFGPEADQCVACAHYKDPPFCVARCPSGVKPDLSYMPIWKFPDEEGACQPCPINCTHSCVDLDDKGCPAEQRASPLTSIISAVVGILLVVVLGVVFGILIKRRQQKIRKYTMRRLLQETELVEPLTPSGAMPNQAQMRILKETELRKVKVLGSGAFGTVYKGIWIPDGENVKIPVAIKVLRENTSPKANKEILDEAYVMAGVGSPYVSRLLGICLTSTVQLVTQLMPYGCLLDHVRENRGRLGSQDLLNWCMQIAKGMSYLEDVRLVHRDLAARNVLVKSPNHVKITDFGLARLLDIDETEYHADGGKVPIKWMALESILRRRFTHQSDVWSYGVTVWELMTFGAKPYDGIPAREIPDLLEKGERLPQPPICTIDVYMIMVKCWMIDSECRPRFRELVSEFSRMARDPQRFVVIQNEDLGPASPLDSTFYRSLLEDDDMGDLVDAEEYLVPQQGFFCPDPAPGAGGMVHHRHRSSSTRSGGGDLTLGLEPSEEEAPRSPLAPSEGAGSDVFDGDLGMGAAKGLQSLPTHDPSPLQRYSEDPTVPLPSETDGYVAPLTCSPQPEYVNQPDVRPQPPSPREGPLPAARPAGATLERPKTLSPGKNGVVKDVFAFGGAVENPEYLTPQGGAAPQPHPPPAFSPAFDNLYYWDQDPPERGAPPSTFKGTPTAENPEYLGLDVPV

IC50 [nM]	Structure (SMILES)
27	COc1ccc2ncnc(Nc3ccc(Oc4cc5ncnn5cn4)c(C)c3)c2c1N1CC[C@@H](N(C)C)C1 [Example 2, (R)—N-(4-([1,2,4]-triazolo[1,5-c]pyrimidin-7-yloxy)-3-methylphenyl)-5-(3-(dimethylamino)pyrrolidin-1-yl)-6-methoxyquinazolin-4-amine]
82	COc1ccc2ncnc(Nc3ccc(Oc4cc5ncnn5cn4)c(C)c3)c2c1OC1CCN(C)CC1 [Example 5, N-(4-([1,2,4]triazolo[1,5-c]pyrimidin-7-yloxy)-3-methylphenyl)-6-methoxy-5-((1-methylpiperidin-4-yl)oxy)quinazolin-4-amine]
35	Cc1cc(Nc2ncnc3ccc(OC(F)F)c(O[C@@H]4CCN(C)CC4(F)F)c23)ccc1Oc1cc2ncnn2cn1 [Example 17, (R)—N-(4-([1,2,4]triazolo[1,5-c]pyrimidin-7-yloxy)-3-methylphenyl)-5-((3,3-difluoro-1-methylpiperidin-4-yl)oxy)-6-(difluoromethoxy)quinazolin-4-amine]
48	Cc1cc(Nc2ncnc3ccc(OC(F)F)c(O[C@H]4CCN(C)CC4(F)F)c23)ccc1Oc1cc2ncnn2cn1 [Example 18, (S)—N-(4-([1,2,4]triazolo[1,5-c]pyrimidin-7-yloxy)-3-methylphenyl)-5-((3,3-difluoro-1-methylpiperidin-4-yl)oxy)-6-(difluoromethoxy)quinazolin-4-amine]
15	Cc1cc(Nc2ncnc3ccc(O[C@H]4CCOC4)c(O[C@@H]4CCN(C)CC4(F)F)c23)ccc1Oc1cc2ncnn2cn1 [Example 21, N-(4-([1,2,4]triazolo[1,5-c]pyrimidin-7-yloxy)-3-methylphenyl)-5-(((R)-3,3-difluoro-1-methylpiperidin-4-yl)oxy)-6-(((S)-tetrahydrofuran-3-yl)oxy)quinazolin-4-amine]
21	Cc1cc(Nc2ncnc3ccc(O[C@H]4CCOC4)c(O[C@H]4CCN(C)CC4(F)F)c23)ccc1Oc1cc2ncnn2cn1 [Example 22, N-(4-([1,2,4]triazolo[1,5-c]pyrimidin-7-yloxy)-3-methylphenyl)-5-(((S)-3,3-difluoro-1-methylpiperidin-4-yl)oxy)-6-(((S)-tetrahydrofuran-3-yl)oxy)quinazolin-4-amine]
9.3	Cc1cc(Nc2ncnc3ccc(OC(C)C)c(O[C@@H]4CCN(C)CC4(F)F)c23)ccc1Oc1cc2ncnn2cn1 [Example 29, (R)—N-(4-([1,2,4]triazolo[1,5-c]pyrimidin-7-yloxy)-3-methylphenyl)-5-((3,3-difluoro-1-methylpiperidin-4-yl)oxy)-6-isopropoxyquinazolin-4-amine]
20	Cc1cc(Nc2ncnc3ccc(OC(C)C)c(O[C@H]4CCN(C)CC4(F)F)c23)ccc1Oc1cc2ncnn2cn1 [Example 30, (S)—N-(4-([1,2,4]triazolo[1,5-c]pyrimidin-7-yloxy)-3-methylphenyl)-5-((3,3-difluoro-1-methylpiperidin-4-yl)oxy)-6-isopropoxyquinazolin-4-amine]
17	COc1ccc2ncnc(Nc3ccc(Oc4cc5ncnn5cn4)c(C)c3)c2c1N1CC2C1CCN2C1CC1 (centres unmarked) [Example 67, N-(4-([1,2,4]triazolo[1,5-c]pyrimidin-7-yloxy)-3-methylphenyl)-5-(2-cyclopropyl-2,6-diazabicyclo[3.2.0]heptan-6-yl)-6-methoxyquinazolin-4-amine]
51	Cc1cc(Nc2ncnc3ccc(OC(F)(F)F)c(O[C@@H]4CCN(C)CC4(F)F)c23)ccc1Oc1cc2ncnn2cn1 [Example 72, (R)—N-(4-([1,2,4]-triazolo[1,5-c]pyrimidin-7-yloxy)-3-methylphenyl)-5-((3,3-difluoro-1-methylpiperidin-4-yl)oxy)-6-(trifluoromethoxy)quinazolin-4-amine]
9.9	COc1ccc2ncnc(Nc3ccc(Oc4cc5ncnn5cn4)c(C)c3)c2c1O[C@@H]1CN(C)CC1(F)F [Example 74, (R)—N-(4-([1,2,4]triazolo[1,5-c]pyrimidin-7-yloxy)-3-methylphenyl)-5-((4,4-difluoro-1-methylpyrrolidin-3-yl)oxy)-6-methoxyquinazolin-4-amine]
13	COc1ccc2ncnc(Nc3ccc(Oc4cc5ncnn5cn4)c(C)c3)c2c1O[C@H]1CN(C)CC1(F)F [Example 75, (S)—N-(4-([1,2,4]triazolo[1,5-c]pyrimidin-7-yloxy)-3-methylphenyl)-5-((4,4-difluoro-1-methylpyrrolidin-3-yl)oxy)-6-methoxyquinazolin-4-amine]
11	COc1ccc2ncnc(Nc3ccc(Oc4cc5ncnn5cn4)c(C)c3)c2c1OC1CCNCC1(F)F (centres unmarked) [Example 76, N-(4-([1,2,4]triazolo[1,5-c]pyrimidin-7-yloxy)-3-methylphenyl)-5-((3,3-difluoropiperidin-4-yl)oxy)-6-methoxyquinazolin-4-amine]
14	[2H]C([2H])([2H])Oc1ccc2ncnc(Nc3ccc(Oc4cc5ncnn5cn4)c(C)c3)c2c1O[C@@H]1CCN(C([2H])([2H])[2H])CC1(F)F [Example 77, (R)—N-(4-([1,2,4]triazolo[1,5-c]pyrimidin-7-yloxy)-3-methylphenyl)-5-((3,3-difluoro-1-(methyl-d3)piperidin-4-yl)oxy)-6-(methoxy-d3)quinazolin-4-amine]
11	COc1ccc2ncnc(Nc3ccc(Oc4cc5ncnn5cn4)c(C)c3)c2c1O[C@@H]1CCN(C(C)C)CC1(F)F [Example 78, (R)-N-(4-([1,2,4]triazolo[1,5-c]pyrimidin-7-yloxy)-3-methylphenyl)-5-((3,3-difluoro-1-isopropylpiperidin-4-yl)oxy)-6-methoxyquinazolin-4-amine]
9.8	COc1ccc2ncnc(Nc3ccc(Oc4cc5ncnn5cn4)c(C)c3)c2c1O[C@@H]1CCN(C2CC2)CC1(F)F [Example 79, (R)-N-(4-([1,2,4]triazolo[1,5-c]pyrimidin-7-yloxy)-3-methylphenyl)-5-((1-cyclopropyl-3,3-difluoropiperidin-4-yl)oxy)-6-methoxyquinazolin-4-amine]
390	C=CC(=O)N1CC=C(c2ccc3ncnc(Nc4ccc(Oc5cc6ncnn6cn5)c(C)c4)c3c2N2CC(N(C)C)C2)CC1 [Example 80, 1-(4-(4-((4-([1,2,4]triazolo[1,5-c]pyrimidin-7-yloxy)-3-methylphenyl)amino)-5-(3-(dimethylamino)azetidin-1-yl)quinazolin-6-yl)-3,6-dihydropyridin-1(2H)-yl)prop-2-en-1-one]
225	C=CC(=O)N1CC=C(c2ccc3ncnc(Nc4ccc(Oc5cc6ncnn6cn5)c(C)c4)c3c2O[C@@H]2CCN(C)CC2(F)F)CC1 [Example 81, (R)-1-(4-(4-((4-([1,2,4]triazolo[1,5-c]pyrimidin-7-yloxy)-3-methylphenyl)amino)-5-((3,3-difluoro-1-methylpiperidin-4-yl)oxy)quinazolin-6-yl)-3,6-dihydropyridin-1(2H)-yl)prop-2-en-1-one]
179	C=CC(=O)N1CCC=C(c2ccc3ncnc(Nc4ccc(Oc5cc6ncnn6cn5)c(C)c4)c3c2N2CC(N(C)C)C2)C1 [Example 82, 1-(5-(4-((4-([1,2,4]triazolo[1,5-c]pyrimidin-7-yloxy)-3-methylphenyl)amino)-5-(3-(dimethylamino)azetidin-1-yl)quinazolin-6-yl)-3,6-dihydropyridin-1(2H)-yl)prop-2-en-1-one]
207	C=CC(=O)N1CCC=C(c2cc(N3CC(N(C)C)C3)c3c(Nc4ccc(Oc5cc6ncnn6cn5)c(C)c4)ncnc3c2)C1 [Example 84, 1-(5-(4-((4-([1,2,4]triazolo[1,5-c]pyrimidin-7-yloxy)-3-methylphenyl)amino)-5-(3-(dimethylamino)azetidin-1-yl)quinazolin-7-yl)-3,6-dihydropyridin-1(2H)-yl)prop-2-en-1-one]
208	COc1ccc2ncc(C#N)c(Nc3ccc(Oc4cc5ncnn5cn4)c(C)c3)c2c1O[C@@H]1CCN(C)CC1(F)F [Example 86, (R)-4-((4-([1,2,4]triazolo[1,5-c]pyrimidin-7-yloxy)-3-methylphenyl)amino)-5-((3,3-difluoro-1-methylpiperidin-4-yl)oxy)-6-methoxyquinoline-3-carbonitrile]
267	Cc1cc(Nc2ncnc3ccc(NC(=O)/C=C/CN(C)C)c(O[C@@H]4CCN(C)CC4(F)F)c23)ccc1Oc1cc2ncnn2cn1 [Example 92, (R,E)-N-(4-((4-([1,2,4]triazolo[1,5-c]pyrimidin-7-yloxy)-3-methylphenyl)amino)-5-((3,3-difluoro-1-methylpiperidin-4-yl)oxy)quinazolin-6-yl)-4-(dimethylamino)but-2-enamide]

Structure (SMILES)	IC50 [nM]
COc1ccc2ncnc(Nc3ccc(Oc4cc5ncnn5cn4)c(C)c3)c2c1N1CC2C1CCN2CC(F)F (centres unmarked) [Example 68, N-(4-([1,2,4]triazolo[1,5-c]pyrimidin-7-yloxy)-3-methylphenyl)-5-(2-(2,2-difluoroethyl)-2,6-diazabicyclo[3.2.0]heptan-6-yl)-6-methoxyquinazolin-4-amine]	6.4
